Tested on: C. elegans
Settings: Table S2, C. elegans SS assay, 110 μM, averages of 4 data points

Row | SMILES | Percentage of motility inhibition 0 h [%] | Percentage of motility inhibition 24 h [%]
1 | C=C(C)[C@@H]1CC=C(CO)CC1 [(S)-(−)-Perillyl alcohol] | 36 | 35
2 | Cn1nnc(-c2ccc(-c3ccc(N4C[C@@H](CO)OC4=O)cc3F)cn2)n1 [(S)‐Tedizolid] | 26 | 5
3 | O=C(O[C@H]1Cc2c(O)cc(O)cc2O[C@@H]1c1ccc(O)c(O)c1)c1cc(O)c(O)c(O)c1 [(‐)‐Catechin gallate] | 3 | 0
4 | COc1cc2c(cc1OC)[C@@H]1Cc3ccc(OC)c(OC)c3C[N@@+]1([O-])CC2 [(‐)‐Corynoxidine] | 19 | 10
5 | Oc1ccc([C@H]2Oc3cc(O)cc(O)c3C[C@H]2O)cc1 [(‐)‐Epiafzelechin] | 13 | 42
6 | O=C(O[C@@H]1Cc2c(O)cc(O)cc2O[C@@H]1c1cc(O)c(O)c(O)c1)c1cc(O)c(O)c(O)c1 [(‐)‐Epigalloca techin Gallate] | 9 | 6
7 | COc1cc2c(cc1O)[C@@H]1Cc3ccc(OC)c(OC)c3CN1CC2 [(‐)‐Isocorypalmine] | 0 | 0
8 | Cn1cc[n+](C[C@@]2(C)[C@H](C(=O)[O-])N3C(=O)C[C@H]3S2(=O)=O)n1 [AAI101] | 27 | 0
9 | NC(=O)c1ncn([C@@H]2O[C@H](CO)[C@@H](O)[C@H]2O)c1N.O=P(O)(O)O [AICAR (phosphate)] | 20 | 6
10 | CC(=O)O[C@@H]1CC[C@@]2(C)[C@@H](CC[C@]3(C)[C@@H]2C(=O)C=C2[C@@H]4[C@@H](C)[C@H](C)CC[C@]4(C)CC[C@]23C)[C@@]1(C)C(=O)O [AKBA] | 0 | 6
11 | Nc1nc(NC2CC2)c2ncn([C@H]3C=C[C@@H](CO)C3)c2n1.Nc1nc(NC2CC2)c2ncn([C@H]3C=C[C@@H](CO)C3)c2n1.O=S(=O)(O)O [Abacavir (sulfate)] | 29 | 2
12 | CC(=O)OC[C@H]1O[C@@H](OC[C@H]2O[C@@H](OC(=O)[C@]34CCC(C)(C)C[C@H]3C3=CC[C@@H]5[C@@]6(C)CC[C@H](O[C@@H]7OC[C@H](O)[C@H](O)[C@H]7O[C@@H]7O[C@H](CO)[C@@H](O)[C@H](O)[C@H]7O)C(C)(C)[C@@H]6CC[C@@]5(C)[C@]3(C)CC4)[C@H](O)[C@@H](O)[C@@H]2O)[C@H](O)[C@@H](O)[C@@H]1O[C@@H]1O[C@@H](C)[C@H](O)[C@@H](O)[C@H]1O [Acanthopanaxoside B] | 0 | 0
13 | CC(=O)NO [Acetohydroxamic acid] | 13 | 4
14 | CC(=O)O[C@H]1Cc2cc3c(cc2[C@H]2N(C)Cc4c(ccc5c4OCO5)[C@@]12C)OCO3 [Acetylcorynoline] | 34 | 11
15 | CC(=O)O[C@H](C[C@@H](C)[C@H]1C(=O)[C@H](O)[C@@]2(C)[C@@H]3CC[C@H]4C(C)(C)[C@@H](O[C@@H]5OC[C@H](O)[C@H](O)[C@H]5O)CC[C@@]45C[C@@]35CC[C@]12C)[C@@H]1OC1(C)C [Acetylshengmanol Arabinoside] | 30 | 30
16 | CC(=O)O[C@H](CC(=O)O)C[N+](C)(C)C.[Cl-] [Acetyl‐L‐carni tine (hydrochloride)] | 12 | 0
17 | COCCNC(=O)Nc1ccc2nc(-c3cccs3)c(-c3cccs3)nc2c1 [Ac‐CoA Synthase Inhibitor1] | 16 | 8
18 | Nc1ncnc2nc[nH]c12.Nc1ncnc2nc[nH]c12.O=S(=O)(O)O [Adenine (hemisulfate)] | 3 | 5
19 | Cl.Nc1ncnc2nc[nH]c12 [Adenine (hydrochloride)] | 0 | 0
20 | Nc1ncnc2c1ncn2[C@@H]1O[C@H](COP(=O)(O)O)[C@@H](O)[C@H]1O.O [Adenosine 5'-monophosphate (monohydrate)] | 20 | 2
21 | Nc1ncnc2c1ncn2[C@@H]1O[C@H](COP(=O)(O)O)[C@@H](O)[C@H]1O [Adenosine monophosphate] | 8 | 6
22 | C/C1=C2/[N-][C@H]([C@H](CC(N)=O)[C@@]2(C)CCC(=O)NC[C@@H](C)OP(=O)([O-])O[C@H]2[C@@H](O)[C@@H](n3cnc4cc(C)c(C)cc43)O[C@@H]2CO)[C@]2(C)N=C(/C(C)=C3N=C(/C=C4N=C1[C@@H](CCC(N)=O)C\4(C)C)[C@@H](CCC(N)=O)[C@]\3(C)CC(N)=O)[C@@H](CCC(N)=O)[C@]2(C)CC(N)=O.[CH2-][C@H]1O[C@@H](n2cnc3c(N)ncnc32)[C@H](O)[C@@H]1O.[Co] [Adenosylcobalamin] | 20 | 22

Row | SMILES | Percentage of motility inhibition 0 h [%] | Percentage of motility inhibition 24 h [%]
23 | COC(=O)C1=CO[C@@H](C)[C@H]2CN3CCc4c([nH]c5ccccc45)[C@@H]3C[C@H]12 [Ajmalicine] | 0 | 1
24 | C[C@]1(O)C[C@@H](O)[C@@H]2C=CO[C@@H](O[C@@H]3O[C@H](CO)[C@@H](O)[C@H](O)[C@H]3O)[C@@H]21 [Ajugol] | 0 | 2
25 | C=C1C(=O)O[C@@H]2C[C@@]3(C)CCC[C@H](C)C3=C[C@H]12 [Alantolactone] | 6 | 29
26 | C[C@]12C[C@@H](O)[C@@H]3C[C@@]1(O[C@@H]1O[C@H](CO)[C@@H](O)[C@H](O)[C@H]1O)[C@@]3(COC(=O)c1ccccc1)C(=O)O2 [Albiflorin] | 0 | 2
27 | CC(=O)O[C@H]([C@@H](O)C[C@@H](C)C1=C2C[C@H](O)[C@H]3[C@@]4(C)CCC(=O)C(C)(C)[C@@H]4CC[C@]3(C)[C@@]2(C)CC1)C(C)(C)O [Alisol A 24-acetate] | 3 | 23
28 | CC(=O)O[C@@H](C[C@@H](C)C1=C2C[C@H](O)[C@H]3[C@@]4(C)CCC(=O)C(C)(C)[C@@H]4CC[C@]3(C)[C@@]2(C)CC1=O)[C@H]1OC1(C)C [Alisol C 23-acetate] | 0 | 17
29 | C[C@@H]1C[C@@H]([C@@H](O)C(C)(C)O)O[C@H]2C[C@@]3(C)C(=C12)C[C@H](O)[C@H]1[C@@]2(C)CCC(=O)C(C)(C)[C@@H]2CC[C@@]13C [Alisol F] | 0 | 11
30 | O=C1CCC[C@@H]2[C@H]3CCCN4CCC[C@@H](CN12)[C@H]34 [Allomatrine] | 0 | 0
31 | O=C1C=C2C=C[C@@H]3C[C@@]2(O1)[C@@H]1CCCCN31 [Allosecurinine] | 23 | 29
32 | C1=C2CCCN[C@H]2[C@@H]2C[C@H]1[C@H]1CCCCN1C2 [Aloperine] | 20 | 0
33 | Cl.NC12CC3CC(CC(C3)C1)C2 [Amantadine (hydrochloride)] | 42 | 2
34 | C=C[C@H]1[C@H](O[C@@H]2O[C@H](CO)[C@@H](O)[C@H](O)[C@H]2OC(=O)c2c(O)cc(O)cc2-c2cccc(O)c2)OC=C2C(=O)OCC[C@]21O [Amaroswerin] | 0 | 0
35 | CC1(C)CCC[C@]2(C)[C@H]3CCO[C@]3(C)CC[C@@H]12 [Ambroxide] | 8 | 14
36 | NCC[C@H](O)C(=O)N[C@@H]1C[C@H](N)[C@@H](O[C@H]2O[C@H](CN)[C@@H](O)[C@H](O)[C@H]2O)[C@H](O)[C@H]1O[C@H]1O[C@H](CO)[C@@H](O)[C@H](N)[C@H]1O.O=S(=O)(O)O.O=S(=O)(O)O [Amikacin (sulfate)] | 0 | 3
37 | CC1(C)[C@@H](O[C@H]2O[C@H](C(=O)O)[C@@H](O)[C@H](O)[C@H]2O[C@@H]2O[C@H](C(=O)O)[C@@H](O)[C@H](O)[C@H]2O)CC[C@]2(C)[C@H]3C(=O)C=C4[C@@H]5C[C@@](C)(C(=O)O)CC[C@]5(C)CC[C@@]4(C)[C@]3(C)CC[C@@H]12 [Ammonium glycyrrhizinate] | 20 | 11
38 | CCC(C)(C)c1ccc(CC(C)CN2C[C@@H](C)O[C@@H](C)C2)cc1.Cl (some centres unmarked) [Amorolfine (hydrochloride)] | 20 | 9
39 | CC1(C)S[C@@H]2[C@H](NC(=O)[C@H](N)c3ccc(O)cc3)C(=O)N2[C@H]1C(=O)[O-].[Na+] [Amoxicillin (sodium)] | 29 | 10
40 | CC1(C)S[C@@H]2[C@H](NC(=O)[C@H](N)c3ccc(O)cc3)C(=O)N2[C@H]1C(=O)O.O.O.O [Amoxicillin (trihydrate)] | 27 | 0
41 | CC1(C)S[C@@H]2[C@H](NC(=O)[C@H](N)c3ccccc3)C(=O)N2[C@H]1C(=O)[O-].[Na+] [Ampicillin (sodium)] | 24 | 1
42 | CCCc1ncc(C[n+]2ccccc2C)c(N)n1.Cl.[Cl-] [Amprolium (hydrochloride)] | 12 | 0
43 | COc1ccc2c(c1OC)C(OC)N(C)c1c-2ccc2cc3c(cc12)OCO3 (centres unmarked) [Angoline] | 0 | 0
